pIC50, pKd: −log10 of the molar value. Numbered stars: 1 amine (or outer) side, 2 acyl side, 3 side chain; on linkers, the order of the positions; unused ones are H or OH. Bridge positions count the residues as written; N and C are the ends. Square brackets hold non-standard residues; d marks the D form. Peptide text beside a SMILES is read from it. Trp(βS-Me,7-OMe) = COc1cccc2c([C@H](C)[C@H](N)C(=O)O)c[nH]c12; Trp(7-CN) = N#Cc1cccc2c(C[C@H](N)C(=O)O)c[nH]c12; Trp(7-Cl) = N[C@@H](Cc1c[nH]c2c(Cl)cccc12)C(=O)O; Phe(4-CONH2) = NC(=O)c1ccc(C[C@H](N)C(=O)O)cc1; Phe(4-COOH) = N[C@@H](Cc1ccc(C(=O)O)cc1)C(=O)O; 4Pal(3S-Me) = C[C@@H](c1ccncc1)[C@H](N)C(=O)O; Trp(1-Me) = Cn1cc(C[C@H](N)C(=O)O)c2ccccc21; Pip(5R-OH) = O=C(O)[C@@H]1CC[C@@H](O)CN1; X1 = O=C([C@@H]1CC[C@H](N[*:1])C1)[*:2]; 4Pal = N[C@@H](Cc1ccncc1)C(=O)O; NMeE = CN[C@@H](CCC(=O)O)C(=O)O; dHyp = O=C(O)[C@H]1C[C@H](O)CN1; Ahp(2) = CCCCC[C@H](N)C(=O)O; hSer = N[C@@H](CCO)C(=O)O; αMeS = C[C@](N)(CO)C(=O)O; Nle = CCCC[C@H](N)C(=O)O; Sar = CNCC(=O)O
What was measured:
[1] = molecular target: T1, human soluble TNFR1 (sTNFR1) (Homo sapiens, UniProt P19438); assay: Human sTNFR1-peptide displacement assay (LanthaScreen Eu TR-FRET binding assay)
T1 construct: made in house; host or cells: Sf21 (baculovirus)
T1 sequence (P19438 with tags, fused parts or gaps): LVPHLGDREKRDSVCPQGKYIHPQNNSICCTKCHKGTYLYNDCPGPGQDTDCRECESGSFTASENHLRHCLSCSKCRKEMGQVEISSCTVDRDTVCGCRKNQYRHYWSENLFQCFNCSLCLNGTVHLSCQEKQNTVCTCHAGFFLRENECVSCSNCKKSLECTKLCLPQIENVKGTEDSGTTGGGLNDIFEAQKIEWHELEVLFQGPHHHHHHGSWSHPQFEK
Summary of the method: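 Readout is the 665/615 nm TR-FRET ratio (Eu anti-His donor, streptavidin-Alexa647 acceptor), normalized to DMSO and saturating displacer, fit by Morrison-based five-parameter logistic for Kd^app. His-tagged sTNFR1 (1-211) prebound to 100 nM biotinylated peptide SEQ ID NO.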

[2] = molecular target: T2, human TNFR1 extracellular domain (ECD) protein (Homo sapiens, UniProt P19438); assay: SPR binding affinity to captured human TNFR1 ECD
T2 construct: HRV 3C protease cleavage site (C); 6His (C, cleaved yes); made in house; host or cells: Sf21 insect cells (baculovirus), secreted
T2 sequence (P19438 30-211): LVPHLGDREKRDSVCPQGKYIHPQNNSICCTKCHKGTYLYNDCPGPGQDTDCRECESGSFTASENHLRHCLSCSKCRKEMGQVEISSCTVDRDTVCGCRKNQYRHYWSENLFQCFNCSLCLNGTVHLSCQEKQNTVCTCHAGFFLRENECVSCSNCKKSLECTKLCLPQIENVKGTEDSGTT
Summary of the method: (§1)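 Peptides are tested against captured biotin-tagged human TNFR1 ECD, with parallel TNFR2 ECD binding to check selectivity. Buffer: 10 mM HEPES pH 7.4, 150 mM NaCl, 3 mM EDTA, 0.05% P20, 2% DMSO.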

human TNFR2 ECD protein = molecular target: T3, human TNFR2 ECD protein (Homo sapiens, UniProt P20333); assay: SPR off-target binding (selectivity) to human TNFR2 ECD
T3 construct: HRV 3C protease cleavage site (C); 6His (C, cleaved yes); made in house; host or cells: Sf21 insect cells (baculovirus), secreted
T3 sequence (P20333 23-257): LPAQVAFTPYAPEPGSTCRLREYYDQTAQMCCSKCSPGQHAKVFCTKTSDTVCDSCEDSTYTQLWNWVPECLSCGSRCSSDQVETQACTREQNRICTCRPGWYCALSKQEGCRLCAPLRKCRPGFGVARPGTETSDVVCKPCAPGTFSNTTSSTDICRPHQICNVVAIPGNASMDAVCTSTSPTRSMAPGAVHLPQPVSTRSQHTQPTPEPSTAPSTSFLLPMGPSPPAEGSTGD
Summary of the method: as §1

With CCCC[C@@H]1NC(=O)CSC[C@@H](C(N)=O)NC(=O)[C@H]([C@@H](C)c2c[nH]c3c(OC)cccc23)NC(=O)CN(C)C(=O)[C@H](Cc2ccc(O)cc2)NC(=O)[C@H](Cc2ccc(C(N)=O)cc2)NC(=O)[C@](C)(CO)NC(=O)[C@H](Cc2c[nH]c3c(Cl)cccc23)NC(=O)[C@H](Cc2ccncc2)NC(=O)[C@H](CC(N)=O)NC(=O)[C@H](CCC(=O)O)N(C)C(=O)[C@H](Cc2cn(C)c3ccccc23)NC(=O)[C@@H]2CC[C@@H](O)CN2C(=O)[C@H](Cc2ccncc2)NC1=O [SEQ ID NO. 151] ({CH2CO}-[Nle][4Pal][Pip(5R-OH)][Trp(1-Me)][NMeE]N[4Pal][Trp(7-Cl)][αMeS][Phe(4-CONH2)]Y[Sar][Trp(βS-Me,7-OMe)]C-NH2; thioether N-14) the pIC50 [1] was 9.54, the pKd [1] was 9.96 and the pKd [2] was 10.40. It also gave a pKd (human TNFR2 ECD protein) of under 6.00.

In the case of CCCCC[C@@H]1NC(=O)[C@@H]2CC[C@@H](C2)NC(=O)[C@H]([C@@H](C)c2c[nH]c3c(OC)cccc23)NC(=O)CN(C)C(=O)[C@H](Cc2ccc(C(N)=O)cc2)NC(=O)[C@H](Cc2ccc(C(N)=O)cc2)NC(=O)[C@](C)(CO)NC(=O)[C@H](Cc2c[nH]c3c(C#N)cccc23)NC(=O)[C@H](Cc2ccc(C(=O)O)cc2)NC(=O)[C@H](CC(N)=O)NC(=O)[C@H]2C[C@H](O)CN2C(=O)[C@H](Cc2c[nH]c3ccccc23)NC(=O)[C@H](CC(N)=O)NC(=O)[C@H]([C@@H](C)c2ccncc2)NC1=O [SEQ ID NO. 92] (cyclo([Ahp(2)][4Pal(3S-Me)]NW[dHyp]N[Phe(4-COOH)][Trp(7-CN)][αMeS][Phe(4-CONH2)][Phe(4-CONH2)][Sar][Trp(βS-Me,7-OMe)][X1])), the pKd [1] was 9.62, the pKd [2] was 10.30 and the pKd (human TNFR2 ECD protein) was under 6.00.

COCC[C@@H]1NC(=O)[C@@H]2CC[C@@H](C2)NC(=O)[C@H]([C@@H](C)c2c[nH]c3c(OC)cccc23)NC(=O)CN(C)C(=O)[C@H](Cc2ccc(C(N)=O)cc2)NC(=O)[C@H](Cc2ccc(C(N)=O)cc2)NC(=O)[C@](C)(CO)NC(=O)[C@H](Cc2c[nH]c3c(C#N)cccc23)NC(=O)[C@H](Cc2ccc(C(=O)O)cc2)NC(=O)[C@H](CC(N)=O)NC(=O)[C@H]2C[C@H](O)CN2C(=O)[C@H](Cc2c[nH]c3ccccc23)NC(=O)[C@@H]2CC[C@@H](O)CN2C(=O)[C@H](Cc2ccncc2)NC1=O [SEQ ID NO. 194] (cyclo([4Pal][Pip(5R-OH)]W[dHyp]N[Phe(4-COOH)][Trp(7-CN)][αMeS][Phe(4-CONH2)][Phe(4-CONH2)][Sar][Trp(βS-Me,7-OMe)][X1][hSer](Me))) showed a pKd [1] of 10.30, a pKd [2] of 10.40 and a pKd (human TNFR2 ECD protein) of under 6.00.

Source: patent US20240287138A1, “CYCLIC PEPTIDES FOR INHIBITING TNF RECEPTOR 1 ACTIVITY” (Merck Sharp & Dohme LLC, priority 2023, published 2024)
